Data on twelve molecules can be found in patent publication US7531576B2, “Biphenyl derivatives” (Pola Chemical Industries, Inc., priority 2000, dated 2009).

For this assay, the target named is ACAT. Description: Evaluation of ACAT inhibitory activity (rat liver enzyme preparation, [14C]-oleoyl CoA substrate). The class given is biochemical. The note with it: ACAT from liver of rats on high-cholesterol feed; 30° C.; pIC50 from concentration-response curve by the nonlinear least square method. As for the experimental part: IR (cm^−1) (KBr): • 1517, 1521, 2962. Test (Evaluation of ACAT Inhibitory Activity) (1) Preparation of the Enzyme (ACAT)
(1-1) Each rat was reared for about 3 weeks on high-cholesterol feed (solid feed prepared by adding 1% of cholesterol, 0.3% of sodium cholate, 0.1% of propylthiouracil and 3% of lard to a conventional feed MF).
(1-2) The liver of the rat reared in (1-1) was collected and shredded. 10 mM HEPES buffer (pH 7.4) which contained 0.25 M of sucrose and 1 mM of EDTA was added in an amount about three times as much as the weight of the liver to suspend the latter. The liver was then homogenized by a glass-Teflon homogenizer.
(1-3) The homogenized liver was centrifuged for 15 minutes under 22000×g, and the supernatant was collected.
(1-4) The supernatant was centrifuged further for 60 minutes under 100000×g. To the precipitates, 10 mM HEPES buffer (pH 7.4) containing 0.25 M of sucrose and 1 mM of EDTA therein was added in about a half of the volume used in (1-2), and the precipitates were suspended again.
(1-5) The suspension was again centrifuged for 60 minutes under 100000×g, and the resulting precipitates were collected. 10 mM HEPES buffer (pH 7.4) containing 0.25 M of sucrose and 2 mM of DTT therein was added to suspend the precipitates. The suspension was stored at −80° C.
(2) Preparation of Reagents
0.75 M Phosphate buffer (pH 7.4), 800 μM BSA and 100 mM DTT were mixed together in amounts of 1.0 mL, 0.5 mL and 0.1 mL, respectively, and ultrapure water (3.4 mL) was added.
A refrigerated sample of the enzyme was diluted with the “reaction buffer” described above to 2.5 mg protein/mL.
10^−3 M Solutions of the compounds to be evaluated were prepared with methanol. 3×10^−4 M Solutions were each prepared by adding 50% methanol (700 μL) to the corresponding 10^−3 M solution (300 μL). 10^−4 M Solutions were each prepared by adding 50% methanol (600 μL) to the corresponding […] solution (300 μL). Up to 10^−7 M solutions (serial 3-fold dilutions), the solutions were prepared by a similar procedure.
(3) Assay Method of ACAT Activity
(3-1) ACAT (20 μL), the reaction buffer (20 μL) and desired one (5 μL) of test samples were placed in a 1.5 mL test tube and incubated at 30° C. for 10 minutes (the resulting solution will hereinafter be called “I”).
(3-2) Reaction substrate [^14C]-oleoyl CoA (5 μL) was added into “I”, and was allowed to react at 30° C. for 4 minutes.
(3-3) Four minutes later, methanol (250 μL) was added to terminate the reaction, and then, a lipid mixture (40 μL), recovery-percentage-correcting [^3H]-cholesteryl oleate (10 μL) and hexane (700 μL) were added into the test tube (this solution will hereinafter be called “II”).
(3-4) “II” was stirred in a mixer, and the hexane layer (500 μL) was collected and transferred into another test tube (this solution will hereinafter be called “III”).
(3-5) “III” was evaporated to dryness, dissolved in chloroform (10 μL), and then spotted on a TLC plate. At that time, cholesteryl oleate was also spotted.
(3-6) After the spots were dried, they were developed with a 85:15:0.5 mixture of hexane, diethyl ether and acetic acid as a developer solvent, and then stained with iodine. A plate section corresponding to the spot of cholesteryl oleate was cut out and placed in a vial. At the same time, the reaction substrate [^14C]-oleoyl CoA (5 μL) and the recovery-percentage-correcting [^3H]-cholesteryl oleate (10 μL) were spotted on the TLC plate, and similarly, plate sections were cut out and placed in vials, respectively.
(3-7) Subsequently, “Aquazole II” (about 10 mL) was added to the vials. After the vials were allowed to stand for a while, they were measured for [^14C] and [^3H] radioactivities.
Using the radioactivities, the % recovery of [^14C]-cholesteryl oleate formed by the enzymatic reaction was calculated from the radioactivity of [^3H], and from the radioactivity of [^14C], the yield of cholesteryl oleate was calculated. […]
Turning to `CCCCCN(Cc1ccc(-c2ccccc2-c2nnn[nH]2)cc1)C(=O)Nc1c(C(C)C)cccc1C(C)C` [Compound of the formula (4), N-(2,6-Diisopropylphenyl)-N′-pentyl-N′-[[2′-(1H-tetrazol-5-yl)-1,1′-biphenyl-4-yl]methyl]urea], the PIC50 is listed as 5.72.

Molecule `CCCCCCCN(Cc1ccc(-c2ccccc2-c2nnn[nH]2)cc1)C(=O)NC1CCCCC1` [Compound of the formula (9), N-Cyclohexyl-N′-heptyl-N′-[[2′-(1H-tetrazol-5-yl)-1,1′-biphenyl-4-yl]methyl]urea] yielded a PIC50 of 5.18. To `CCCCCCCN(Cc1ccc(-c2ccccc2-c2nnn[nH]2)cc1)C(=O)Nc1ccc(F)cc1F` [Compound of the formula (8), N-(2,4-Difluorophenyl)-N′-heptyl-N′-[[2′-(1H-tetrazol-5-yl)-1,1′-biphenyl-4-yl]methyl]urea] belongs 5.49; to `CCCCCN(CC(=O)Nc1c(F)cc(F)cc1F)Cc1ccc(-c2ccccc2-c2nnn[nH]2)cc1` [Compound of the formula (15), N-Pentyl-N-[[2′-(1H-tetrazol-5-yl)-1,1′-biphenyl-4-yl]methyl]-N-[[[(2,4,6-trifluorophenyl)amino]-carbonyl]methyl]amine], 5.21. To `CCCCCCCN(Cc1ccc(-c2ccccc2S(=O)(=O)NC(=O)Nc2c(C(C)C)cccc2C(C)C)cc1)C(=O)Nc1c(F)cc(F)cc1F` [Compound of the formula (12), N′-[[2′-[[[[(2,6-Diisopropylphenyl)amino]-carbonyl]amino]sulfonyl]-1,1′-biphenyl-4-yl]methyl]-N′-heptyl-N-(2,4,6-trifluorophenyl)urea] belongs 6.40. Molecule `CCCCCN(Cc1ccc(-c2ccccc2-c2nnn[nH]2)cc1)C(=O)Nc1c(F)cc(F)cc1F` [Compound of the formula (6), N′-Pentyl-N′-[[2′-(1H-tetrazol-5-yl)-1,1′-biphenyl-4-yl]methyl]-N-(2,4,6-trifluorophenyl)urea] came in with a PIC50 of 5.52. The same measure for `CCCCCN(Cc1ccc(-c2ccccc2-c2nnn[nH]2)cc1)C(=O)Nc1c(C)cc(C)cc1C` [Compound of the formula (5), N′-Pentyl-N′-[[2′-(1H-tetrazol-5-yl)-1,1′-biphenyl-4-yl]methyl]-N-(2,4,6-trimethylphenyl)urea]: 5.65; for `CCCCCN(CC(=O)Nc1c(C(C)C)cccc1C(C)C)Cc1ccc(-c2ccccc2-c2nnn[nH]2)cc1` [Compound of the formula (13), N-[[[(2,6-Diisopropylphenyl)amino]carbonyl]methyl]-N-pentyl-N-[[2′-(1H-tetrazol-5-yl)-1,1′-biphenyl-4-yl]methyl]amine]: 5.39. The same measure for `CCCCCN(Cc1ccc(-c2ccccc2NS(=O)(=O)C(F)(F)F)cc1)C(=O)Nc1c(F)cc(F)cc1F` [Compound of the formula (11), N′-Pentyl-N′-[[2′-[[(trifluoromethyl)sulfonyl]-amino]-1,1′-biphenyl-4-yl]methyl]-N-(2,4,6-trifluorophenyl)urea]: 5.71. To `CCCCCN(CC(=O)Nc1c(C)cc(C)cc1C)Cc1ccc(-c2ccccc2-c2nnn[nH]2)cc1` [Compound of the formula (14), N-Pentyl-N-[[2′-(1H-tetrazol-5-yl)-1,1′-biphenyl-4-yl]methyl]-N-[[[(2,4,6-trimethylphenyl)amino]-carbonyl]methyl]amine] belongs 5.23; to `CCCCCCCN(Cc1ccc(-c2ccccc2-c2nnn[nH]2)cc1)C(=O)Nc1c(F)cc(F)cc1F` [Compound of the formula (7), N′-Heptyl-N′-[[2′-(1H-tetrazol-5-yl)-1,1′-biphenyl-4-yl]methyl]-N-(2,4,6-trifluorophenyl)urea], 6.23. Molecule `CCCCCN(Cc1ccc(-c2ccccc2NC(=O)C(F)(F)F)cc1)C(=O)Nc1c(F)cc(F)cc1F` [Compound of the formula (10), N′-Pentyl-N′-[[2′-[[(trifluoromethyl)carbonyl]-amino]-1,1′-biphenyl-4-yl]methyl]-N-(2,4,6-trifluorophenyl)urea] yielded a PIC50 of 6.57.
